Measured values as given in patent US5053006A, “Method for the permanent occlusion of arteries” (priority 1990, dated 1991).

What was measured:
[1] = in vivo; cited from earlier work
femoral artery = experiment: Argon laser photothrombotic occlusion of femoral artery (Example 1); type: in vivo, rat (male Wistar)
Source text: (§1) Male Wistar rats, each weighing 280 to 330 gm, were anesthetized with 1.5% halothane and maintained on a 70:30 mixture of nitrous oxide and oxygen delivered by a closely fitting Mylar face mask (Watson et al., J. Neurosurg., 66:748-754, 1987, the disclosure of which is hereby incorporated by reference and relied upon). After separation of the temporal musculature, the middle cerebral artery was exposed via a small subtemporal craniectomy produced by a high-speed drill under an operating microscope; the dura was left intact. The common carotid arteries were exposed bilaterally by a midline incision extending from the mental process to the sternal notch; the sternocleidomastoid muscle was then retracted laterally to expose the underlying artery. Bleeding from the operative site was controlled with pressure and Gelfoam. The animal was then prepared for irradiation by filling the surgical cavity with saline, just submerging the exposed blood vessel. The saline solution was kept clear by frequent suction and irrigation. The femoral arteries were exposed by bilateral inguinal incisions and were prepared for irradiation in a fashion similar to that described above.
(§2) As assessed by observation of rose bengal fluorescence, thrombus development in the common carotid or femoral arteries followed a course similar to that observed in the middle cerebral artery, except that the thrombus appeared as a […] as viewed through the blood vessel wall. Intense scattering of the incident laser light was also noted at about the time that arterial pulsations at the level of irradiation ceased.
(§3) Ultrastructural studies were carried out at either 30 minutes or 7 days following irradiation. Animals were perfused transcardially with 0.9% sodium chloride solution followed by 2% paraformaldehyde and 2.5% glutaraldehyde in a 0.1 M sodium phosphate buffer. Perfusion pressure was monitored throughout the procedure and was maintained at 100 mm Hg. After perfusion fixation, the femoral and common carotid arteries were isolated and placed in fixative for an additional 2 hours. To isolate the middle cerebral artery, the brain was first removed from the cranial vault and placed in fixative for a 2-hour period. Next, the whole brain was placed in phosphate-buffered 1% osmium tetroxide for 2 minutes.

rabbit ocular mucin = experiment: Immunofluorescence of mucin expression with anti-ROM antibody; type: in vivo
Experimental: (§4) The epithelial phenotype of the control and treated corneas was then studied by impression cytology (Tseng, Ophthalmology, 92:728-33, 1985) and routine histology using hematoxylin and PAS. In addition, immunofluorescent stainings of the frozen sections using a previously developed anti-rabbit ocular mucin monoclonal antibody [anti-ROM] was performed to study mucin expression.
To further confirm the transition of epithelial differentiation, a monoclonal antibody against rabbit ocular mucin [anti-ROM] was used to examine the expression of mucin, the major product of goblet cells.

[2] = rabbit, in vivo
Experimental: In order to investigate possible systemic side effects of rose bengal, the blood chemistry profiles of healthy rabbits before and after intravenous injection of rose bengal were studied. Four practical dosages, i.e., 40, 16, 8 and 4 mg/kg bw, were administered. Five rabbits were used for each dosage except for the dosage of 40 mg/kg bw, in which case ten rabbits were used. Three blood samples (3 ml each) were collected from each rabbit before injection with rose bengal, and one and five days following injection.

Factor VIII = experiment: Immunofluorescence study of thrombus composition, Factor VIII; parameters: species or system rat
Experimental: Following incubation with primary antibody for one hour, FITC-conjugated goat anti-mouse IgG and goat anti-mouse IgG antibodies (Sigma Chemical Co., St. Louis, Mo.) were used as secondary antibodies for anti-fibrinogen and anti-Factor VIII, respectively. The sections were observed by epi-illumination with a Nikon Microphot-FX microscope.

[3] = system: conjunctival epithelium on vascularized corneas; experiment: Epithelial differentiation on photothrombosed corneas (goblet cells, cytology, histology); type: in vivo, New Zealand albino rabbit
Experimental: In order to study the goblet cell density on the vascularized corneas before and after photothrombosis, corneal flat-mounts were prepared and stained according to usual methods (Tseng et al., Invest. Opthalmol. Vis. Sci., 25:1168-76, 1984). The pattern of goblet cell disappearance was then analyzed and specifically correlated with the treated area.
as §4

[4] = Absorption / excitation of the dye in tissue; type: physicochemical
Source text: Examples of lasers that can be used to provide the light beam include the He-Ne laser, the argon ion laser and the argon-pumped dye laser. The 543.5 nm He-Ne laser, for example, can excite rose bengal with an efficiency of 58% of the maximum. (The wavelength at which excitation efficiency for rose bengal is maximal in tissue occurs at 562 nm.) Because the maximum theoretical power output is only 4 or 5 milliwatts, the 543.5 nm He-Ne laser is not used in clinical applications at this time. However, this laser is expected to be particularly useful in permanently occluding relatively low-flow arteries, smaller than about 200 μm, such as those in the choroid of the eye.
The argon ion laser is the most common clinical laser used at this time. Although the commonly used argon 514.5 nm line is only 36% efficient with respect to the maximum of rose bengal absorption, this laser is much more powerful (by at least a factor of 1000) and versatile than the He-Ne laser.
The absorption maximum of erythrosin B in endothelial tissue is at 536 nm, which is closer than that of rose bengal to the standard 514.5 nm wavelength of the argon ion laser.

middle cerebral artery = experiment: Argon laser photothrombotic occlusion of middle cerebral artery (Example 1); type: in vivo, rat (male Wistar)
Source text: as §1
Thrombus development and subsequent occlusion of the middle cerebral artery were easily observed during irradiation owing to wall transparency. The irradiated segment emitted a bright orange fluorescence (as viewed through an interference filter which rejected the 514.5 nm argon line); this was attributed to rose bengal uptake by red blood cell membranes and binding to plasma proteins such as albumin. As the irradiation proceeded, the fluorescence became yellowish and less intense owing to the accumulation of platelets and exclusion of red blood cells from the developing thrombus. Complete occlusion was signaled by exclusion of red blood cells from the arterial segments both distal and proximal to the irradiated portion, leaving a single colorless segment 7 to 10 arterial diameters in length.
as §3
The blood vessels were then postfixed in Millonig's phosphate-buffered 1% osmium tetroxide for 1 hour. Specimens chosen for transmission electron microscopy were dehydrated in ethanol and propylene oxide and embedded in Poly-Bed 812 as previously described (Dietrich et al., J Neuropathol. Exp. Neurol., 43:72-83, 1984). Sections 1 μm thick were cut with glass knives on a Sorvall ultra-microtome and stained with toluidine blue. To characterize the occlusive material more completely, ultra-thin sections stained with uranyl acetate and lead citrate were examined with a Zeiss EM-10C electron microscope. The blood vessels chosen for scanning electron microscopy analysis were examined under a dissecting microscope and cut longitudinally with a scalpel blade to expose the luminal surface. The blood vessels were then dehydrated in graded ethanols and placed in Freon. The tissue was critical-point dried, coated with gold, and examined and photographed with a JEOL JSM-35C scanning electron microscope.

common carotid artery = experiment: Argon laser photothrombotic occlusion of common carotid artery (Example 1); type: in vivo, rat (male Wistar); conditions: 514.5 nm argon laser
Source text: as §1, §2
as §3, with “To isolate the middle cerebral artery, the brain was first removed from the cranial vault and placed in fixative for a 2-hour period. Next, the whole brain was placed in phosphate-buffered 1% osmium tetroxide for 2 minutes.” left out

O=C([O-])c1c(Cl)c(Cl)c(Cl)c(Cl)c1-c1c2cc(I)c(=O)c(I)c-2oc2c(I)c([O-])c(I)cc12.[Na+].[Na+] [rose bengal]
disappearance through the feces [1]: 3 days | complete occlusion, irradiation time (femoral artery; 40 mg/kg i.v., 514.5 nm argon laser): ≤ 3 min | energy fluence at occlusion (femoral artery; 514.5 nm argon laser): about 35 kJ/sq cm | total energy deposited at occlusion (femoral artery; 514.5 nm argon laser): 140 to 180 joules (J) | occlusion, irradiation time (femoral artery; one-half the standard dose (20 mg/kg), two rats): ≤ 4 min | mucin in epithelium of occluded corneas (rabbit ocular mucin; four weeks): complete absence | expression of mucin antigen (rabbit ocular mucin; with time after vessel occlusion): diminish gradually with time | external examination, discoloration [2]: slightly pinkish discoloration of the mucosal surfaces | lethargy or change of appetite [2]: Neither lethargy nor change of appetite was noted | blood chemistry overall ([2]; 40 mg/kg): within the normal range except for a small number in the group that received the highest dosage | long-term systemic toxicity ([2]; iv): does not result in long-term systemic toxicity | Factor VIII in photoinduced MCA thrombi (Factor VIII): abundance | goblet cells on the cornea ([3]; four weeks): no goblet cells were noted | histology of epithelium ([3]; four weeks): stratified cornea-like epithelium | goblet cell density, cytology ([3]; one week): decreased goblet cell density | epithelial N/C ratio ([3]; one week, impression cytology): slight increase | goblet cell density ([3]; treated areas, four days): remarkably decreased | excitation efficiency relative to maximum of absorption ([4]; 514.5 nm argon line): 36% | excitation efficiency relative to maximum ([4]; 543.5 nm He-Ne laser): 58% | gain in efficiency of endothelial photosensitization, factor ([4]; argon-pumped dye laser (562 nm) over 514.5 nm argon line): ≥ 3 | wavelength of maximal excitation efficiency / absorption maximum in tissue ([4]; in tissue): 562 nm | length of colorless occluded segment (middle cerebral artery; complete occlusion): 7 to 10 arterial diameters | recanalization on saline bolus (middle cerebral artery; five minutes after completion of irradiation): no recanalization was observed | energy fluence (middle cerebral artery; rat, in vivo): ~3.5 kJ/sq cm | total energy deposited (middle cerebral artery; rat, in vivo): approximately 1 J | thrombus composition (middle cerebral artery; ultrastructural analysis): composed primarily of aggregated platelets | irradiation time to effect complete occlusion (middle cerebral artery; very low incident intensity): ≤ 3 min | complete occlusion, irradiation time (common carotid artery; 40 mg/kg i.v.): ≤ 3 min | energy fluence at occlusion (common carotid artery): about 35 kJ/sq cm | total energy deposited at occlusion (common carotid artery): 140 to 180 joules (J)
